Laboratory results reported in article PMC5622171 (Nature Communications, 2017).

Legend:
Cyp3a11 = assay: Loss of righting reflex (LORR) assay in hPXR-tg mice; format: in vivo, mouse; settings: hPXR humanized mice, SPA70 200 mg kg−1 i.p., RIF 10 mg kg−1
Method: The LORR assay method has been described previously, by using 2,2,2-tribromoethanol, a substrate of mouse Cyp3a11 which is induced by hPXR. Mice were first injected intraperitoneally with 250 mg kg^−1 of 2,2,2-tribromoethanol, then placed on their backs under a heat lamp as soon as they lost their righting reflex. The LORR duration was defined as the time period from the start of LORR to when mice could right themselves twice within 1 min, after being placed on their backs. For each mouse, a baseline LORR duration was first established before oral administration of vehicle or compounds. […] A paired Student’s t-test was used to compare the LORR duration at baseline and after treatment. A P-value of less than 0.05 was considered to indicate a significant difference between the compared groups.

[1] = test system: panel of seven other human nuclear receptors; assay: GeneBLAzer nuclear receptor panel, agonistic and antagonistic modes; format: cell-based
Method: For the GeneBLAzer NR-UAS-bla HEK 293 T assays for VDR, RXRα, RXRβ, FXR, GR, LXRα, LXRβ and PPARγ, GeneBLAzer panel nuclear receptor cells, the LiveBLAzer FRET-B/G Loading Kit with CCF4-AM, and all tissue culture reagents were purchased from Thermo Fisher Scientific. The assays were performed in accordance with the manufacturer’s instructions, with minor modifications as reported previously[48]–[50]. Briefly, positive control (as described for each assay), DMSO, and dilutions of test chemicals either alone (for agonistic assays) or in combination with an approximately EC80 concentration of a specific agonist (for antagonistic assays) were incubated with an optimized number of cells for each assay in wells of black 384-well tissue culture-treated clear-bottom plates with 30 µl of the respective assay medium in a 37 °C cell-culture incubator. A group of wells containing assay medium and DMSO, but no cells, served as a background control. The final DMSO concentration was 0.5% for all wells. After 24 h, 6 µl per well of loading solution was added, and this step was followed by an optimal period of incubation at room temperature in the dark before the fluorescent emission at 460 and 535 nm (using excitation at 400 nm) was measured with an EnVision plate reader. […]

COc1ccc(OC)c(-n2nnc(S(=O)(=O)c3ccc(C(C)(C)C)cc3)c2C)c1 [SPA70]
Effect on rifampicin-induced metabolism of 2,2,2-tribromoethanol by Cyp3a11 (LORR) (Cyp3a11): effectively blocked
Agonistic or antagonistic activity against other human nuclear receptors [1]: no detectable agonistic or antagonistic activity
